The Papp A→B is how fast a substance crosses the layer from the apical side. What is called IC50 is the concentration that gives 50% inhibition.

Here are results for nine compounds from PMC12567041 (Pharmaceutics, 2025).

For data set [1] the following is noted: cited from earlier work.
The conditions of data set [2]: cited from earlier work. The source holds these as a separate data set.
Data set [3] is described as follows: In vitro stability study in human feces. The following applies: after 20 h. The class given is in vitro ADME.
The next data set in a line: in vitro. The conditions noted are these: dog, MDCK.
For another data set, the target named is T1, UGT1A4 (Homo sapiens, UniProt P22310).
T1 sequence (P22310 29-534): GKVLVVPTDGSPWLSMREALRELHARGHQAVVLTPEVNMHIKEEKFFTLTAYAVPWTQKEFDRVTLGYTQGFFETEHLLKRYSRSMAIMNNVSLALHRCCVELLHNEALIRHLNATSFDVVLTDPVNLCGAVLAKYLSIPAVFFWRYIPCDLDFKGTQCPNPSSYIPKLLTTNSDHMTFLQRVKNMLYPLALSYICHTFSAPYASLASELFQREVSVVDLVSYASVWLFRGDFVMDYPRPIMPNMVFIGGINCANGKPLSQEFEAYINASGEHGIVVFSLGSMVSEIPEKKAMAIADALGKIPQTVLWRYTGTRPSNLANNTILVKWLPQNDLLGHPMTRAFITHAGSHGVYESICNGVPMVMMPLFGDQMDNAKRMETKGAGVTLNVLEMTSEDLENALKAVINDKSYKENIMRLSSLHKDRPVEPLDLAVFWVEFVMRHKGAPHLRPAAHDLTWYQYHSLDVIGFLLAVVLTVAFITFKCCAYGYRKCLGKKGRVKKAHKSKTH
Put plainly: Inhibition of recombinant UGT1A4 by imatinib. Format: in vitro ADME.

With `Cn1c(=O)c2c(ncn2C)n(C)c1=O` [Caffeine, caffeine], in data set [1] (probe substrate property), the “fm by CYP1A2” value is “≈ 0.9”.
Regarding `O=C(Nc1ccc(OC(F)(F)Cl)cc1)c1cnc(N2CC[C@@H](O[C@@H]3O[C@H](C(=O)O)[C@@H](O)[C@H](O)[C@H]3O)C2)c(-c2ccn[nH]2)c1` [M30.5], the “share of the total AUC” value in data set [2] (circulating metabolite) is on record as 4.93%. The “share of the administered dose” value in data set [2] (urinary metabolite) is recorded as 5.4–8.4%. Besides, the “stability in human feces” value in data set [3] is “almost completely hydrolyzed back to asciminib”.
For the compound `COc1ccc2[nH]c([S+]([O-])Cc3ncc(C)c(OC)c3C)nc2c1` (centres unmarked) [Omeprazole, omeprazole], the “fm by CYP2C19” value in data set [1] (CYP2C19 normal metabolizers) was “≈ 0.9”. In addition, the “fm by CYP3A” value in data set [1] (probe substrate property) is given as “≈ 0.1”.
Consider `Cc1nnc(C(=O)NC(C)(C)c2nc(C(=O)NCc3ccc(F)cc3)c(O)c(=O)n2C)o1` [Raltegravir, raltegravir], for which the “share eliminated by renal clearance” value in data set [1] (assumption of the raltegravir model) is listed as 9%.
On to `CCOc1cc(CC(=O)N[C@@H](CC(C)C)c2ccccc2N2CCCCC2)ccc1C(=O)O` [Repaglinide, repaglinide], for which, in data set [1] (probe substrate property), the “fm by CYP2C8” value is “≈ 0.7” and the “fm by CYP3A” value is given as “≈ 0.3”.
Turning to `C[C@H]1[C@H](NC(=O)/C(=N\OC(C)(C)C(=O)O)c2csc(N)n2)C(=O)N1S(=O)(=O)O` [aztreonam, reference compound], in the data set “in vitro”, the Papp A→B was determined as 2.4 nm/s.
Regarding `Cc1ccc(NC(=O)c2ccc(CN3CCN(C)CC3)cc2)cc1Nc1nccc(-c2cccnc2)n1` [imatinib], the IC50 at UGT1A4 is 15 µM.
In turn, `CC(C)NCC(O)COc1cccc2ccccc12` (centres unmarked) [propranolol, reference compound] returned a Papp A→B in “in vitro” of 360 nm/s.
`CN(CCOc1ccc(CC2SC(=O)NC2=O)cc1)c1ccccn1` (centres unmarked) [rosiglitazone]: in data set [1] (probe substrate property), the “fm by CYP2C8” value is recorded as “≈ 0.6” and the “fm by CYP2C9” value is given as “≈ 0.3”.
